Reference: patent US11479570B2, “Pentafluorophosphate derivative, its uses and an appropriate manufacturing method” (FREIE UNIVERSITÄT BERLIN, priority 2017, dated 2022)
Entries after “also recorded” stand apart in the source; their conditions may differ. Where two headings read alike, the source gives them in different places.

Key:
[1] = Solubility; format: physicochemical; settings: tetramethylammonium salt
From the text: The obtained product 14-Na (cf. FIG. 5B) was stable and well soluble in the used biochemical buffer.

[2] = target: T1, protein tyrosine phosphatase PTP1B (Homo sapiens, UniProt P18031); experiment: PTP1B enzyme assay (detection of chromogenic para-nitrophenolate); format: biochemical; settings: for Ki: detection of the chromogenic para-nitrophenolate at 405 nm, read-out: inhibition constant KI (inhibitory effect on PTP1B in an enzyme assay)
T1 sequence (P18031 1-435): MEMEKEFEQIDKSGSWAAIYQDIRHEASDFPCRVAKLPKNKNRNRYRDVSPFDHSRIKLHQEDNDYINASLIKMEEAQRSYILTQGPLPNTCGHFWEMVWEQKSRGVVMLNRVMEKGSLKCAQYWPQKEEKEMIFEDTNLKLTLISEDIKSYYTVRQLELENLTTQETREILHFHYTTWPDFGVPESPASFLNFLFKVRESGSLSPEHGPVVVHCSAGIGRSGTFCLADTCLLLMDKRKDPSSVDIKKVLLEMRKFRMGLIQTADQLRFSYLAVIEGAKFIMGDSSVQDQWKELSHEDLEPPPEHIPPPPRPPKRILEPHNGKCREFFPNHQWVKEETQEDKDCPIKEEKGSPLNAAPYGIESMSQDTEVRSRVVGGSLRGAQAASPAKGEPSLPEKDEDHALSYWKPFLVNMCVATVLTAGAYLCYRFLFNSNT
From the text: (§1) In order to enhance the solubility in aqueous systems and to exclude any interfering effects of the counter ion NMe4^+, compound 13 was transferred into its sodium salt 13-Na.
During the measurements of the inhibitory effect of 13-Na, inhibitors with known inhibition constants were used in parallel as positive controls in order to verify the reliability of the assay.

[3] = Stability in aqueous solution by 19F-NMR spectroscopy; format: physicochemical; settings: pH range from 2 to 12 in aqueous solution, D2O, after several hours
From the text: as §1

[4] = Lipophilicity from elution properties on RP-HPLC; format: physicochemical; settings: in accordance with elution properties on RP-HPLC
Experimental: Formation of α,α-difluorobenzyl-penta-P-fluorophosphate 13 was confirmed by HPLC-MS analysis displaying very uncommon elution properties both on C8 and C18 reversed phase silica. While the phosphonic acid 12 eluted at 3.4 min on RP-18 material displaying a symmetric peak and a characteristic UV spectrum, compound 13 interacted strongly with the column material, resulting in elution after 9 min at the very end of the default gradient (5 to 95% ACN in water). Additionally, no absorbance of 13 at 210 nm, 254 nm and 290 nm could be observed. These properties hampered chromatographic purifications like reverse phase MPLC.

[5] = target: T1, protein tyrosine phosphatase PTP1B; settings: data published (literature), cited from earlier work

## C[N+](C)(C)C.FC(F)(c1ccccc1)[P-](F)(F)(F)(F)F [compound 13, tetramethylammonium (difluoro-(phenyl)-methyl)-penta-P-fluorophosphate]
[1]
  solubility in acetonitrile versus water: more soluble in acetonitrile than in water
[2]
  inhibitory potential towards PTP1B (in words): reversible inhibitor; also recorded: significant affinity
  Ki: 1800 µM
[3]
  stability (degradation or hydrolysis): no degradation or hydrolysis could be observed
[4]
  lipophilicity compared to phosphonate 12: significantly more lipophilic

## Fluorobenzyl phosphonic acid
[5]; comparative examples, read-out: Inhibitory effect on PTP1B in an enzyme assay, KI
  Ki: ~5 mM

## C[N+](C)(C)C.FC(F)(c1ccc2ccccc2c1)[P-](F)(F)(F)(F)F [compound 14, tetramethylammonium (difluoro-(naphtha-2-yl)-methyl)-penta-P-fluorophosphate]
[2]
  Ki: 26 µM

## O=P(O)(O)Cc1ccccc1 [Benzyl phosphonic acid]
[5]; comparative example
  Inhibitory effect on PTP1B in an enzyme assay (in words): No inhibition
